Test results as given in article PMC9034499, “RORγt agonist enhances anti-PD-1 therapy by promoting monocyte-derived dendritic cells through CXCL10 in cancers” (Journal of Experimental & Clinical Cancer Research : CR, 2022).

What was measured:
[1] = system: Th17 cells (CD4+ T cells); test: Murine Th17 differentiation, flow cytometry; type: cell-based, mouse; details: Th17, intracellular staining, same concentration
Description: (§1) CD4^+ CD25^−CD62L^high cells were purified from C57BL/6 splenocytes using an EasySep Mouse Naïve CD4^+ T cell isolation kit from STEMCELL Technologies (Vancouver, Canada), and they were differentiated into Th17 cells (TGF-β, 2 ng/ml; IL-6, 20 ng/ml; Anti-IFN-γ, 10 μg/ml; Anti-IL-4, 10 μg/ml, BioLegend, San Diego, CA) in the presence of plate-bound anti-CD3 (5 μg/ml, BioLegend, San Diego, CA) and anti-CD28 (2 μg/ml, BioLegend, San Diego, CA). The cells were harvested and processed for cytokine analysis at the RNA or protein level using real-time qPCR, flow cytometry, and ELISA on day five. Alternatively, splenocytes from OT-I mice were activated using OVA-derived peptides SIINFEKL (50 ng/ml, Sangon Biotech, Shanghai, China) and polarized to Tc17 cells using cytokine TGF-β (2 ng/ml, BioLegend, San Diego, CA) and IL-6 (20 ng/ml, BioLegend, San Diego, CA) for four or five days.
(§2) Cells were stained with fluorochrome-labeled anti-mouse Ab such as CD45, CD3, CD4, CD8, Foxp3, IFN-γ, IL-17A, CD11b, CD11c, pAKT, pSTAT3, CCR6, or MHCII. […] Cells were acquired using the FACS Aria II machine and analyzed using FlowJo software.

Th1 cells = test: Th1 specificity, IFN-γ by flow cytometry; type: cell-based, C57BL/6 wild-type mice; details: compared with vehicle alone
Text: (§3) To confirm the in vitro specificity of 8-074, splenocytes from C57BL/6 wild-type mice were activated by plate-bound anti-CD3 and anti-CD28 antibodies and polarized with anti-IL-4 and IL-12 to obtain Th1 cells. IFN-γ, a signature cytokine of Th1 cells, was not affected by LYC-55716 or 8-074 compared with vehicle alone (Fig. 2j, Fig. S2g).

macrophages = test: Macrophage markers by qPCR; type: cell-based; details: compared with vehicle
Description: The intracellular cytokines by TILs or in vitro differentiated T helper cells were quantified after restimulation with PMA plus ionomycin in the presence of GolgiStop for 6 h. The total RNA was isolated using the improved TRizol-based (Sigma, Darmstadt, Germany) method for qPCR analysis, and the mRNA expression was analyzed using a StepOnePlus (Life Technologies, Carlsbad, USA) real-time PCR instrument using housekeeping gene β-actin and Gapdh internal standards. qPCR was performed using A Power SYBR Green PCR Master Mix (Accurate Biology, Hunan, China) and two-cycle amplification for 40 cycles followed by the melting curve. The sequence of primers is listed in the Additional file 6: Table S1. In addition, the cytokines were quantified in cell-free culture supernatants using enzymelinked immunosorbent assay (ELISA) kit (the optical density (OD) value was measured at 450 nm, using 570 nm or 630 nm as the reference wavelengths, Multisciences, Hangzhou, China). The kit was used according to the manufacturer’s instructions.
as §3

hRORγt LBD = molecular target: T1, hRORγt LBD (Homo sapiens, UniProt P51449); test: RORγt GAL4 cell-based reporter gene assay; details: HEK293T host cells; read-out: EC50, RORγt agonist activity in Gal4 reporter gene assay
T1 construct: expressed in transfected cells; host or cells: HEK293T
T1 sequence (P51449 269-508 limits assumed): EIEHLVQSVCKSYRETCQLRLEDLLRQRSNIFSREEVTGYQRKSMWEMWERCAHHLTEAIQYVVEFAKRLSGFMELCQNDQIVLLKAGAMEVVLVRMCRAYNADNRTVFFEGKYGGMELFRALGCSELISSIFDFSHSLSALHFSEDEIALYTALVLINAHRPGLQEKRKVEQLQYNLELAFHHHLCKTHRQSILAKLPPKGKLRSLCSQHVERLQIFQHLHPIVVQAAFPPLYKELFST
Description: The hRORγt LBD coding sequence was inserted into a pBIND expression vector (Promega, E1581) to express the ROR-GAL4 binding domain chimeric receptors. This expression vector and a reporter vector (pGL4.35, which carries a stably integrated GAL4 promoter-driven luciferase reporter gene [luc2P/9XGAL4 UAS/Hygro]) were co-transfected into the HEK293T host cells. The assay was performed according to a previous study. EC50 of the sigmoidal fits were analyzed using Prism 5 and a four-parameter logistic fit equation, Y = bottom + (top–bottom) / (1 + 10(logEC50 − X) × hill slope). "X" is the log of compound concentration, and "Y" is the response, which increases as X increases. Y starts at "bottom" and goes to "top" with a sigmoid shape.

[2] = system: Tc17 cells (CD8+ T cells); test: Murine Tc17 differentiation, flow cytometry; type: cell-based, mouse; details: Tc17, intracellular staining, same concentration
Description: as §1, §2

Compound: CCS(=O)(=O)c1ccc(CC(=O)Nc2ccc(-c3ccc(CC(C)C)c(C#N)c3)c(C(F)(F)F)c2)cc1 [8-074]
- percentage of CD4+ T cells that express IL-17A [1]: 24.0%
- IFN-γ, signature cytokine of Th1 cells (Th1 cells): not affected
- gene expression of macrophage markers Arg1, Il-1β, Il-6, and Il-10 (macrophages): no significant change
- EC50 (hRORγt LBD): 119 nM
- percentage of CD8+ T cells that express IL-17A [2]: 50.4%
